Assay results from US20060149045A1, “Steroid compounds with anti-tumor activity” (priority 2002, published 2006).
pIC50: −log10 of the molar value.

Legend:
A549 (lung cancer) cells = assay: Cell migration, phase-contrast video microscopy; type: cell-based, human
Protocol: (§1) Cells of different cancer lines, i.e. U-373 MG (Glioma cancer), Hs578T (breast cancer) and A549 (lung cancer) were seeded on culture flask 48 hours before the migration experiment. On the test day, cells were treated with or without compounds UBS881, UBS1664, UBS3285, UBS3327 and UBS3328 in closed Falcon dishes containing a buffered medium at a controlled temperature (37.0±0.1° C.) for 12 or 24 hours. The compounds were administered at two non-cytotoxic concentrations (10^−6 M and 10^−7 M) for UBS881 and UBS1664, and at 4 concentrations (10^−7 M to 10^−10 M) for UBS3285, UBS3327 and UBS3328. Migration of the cells was observed by means of a CCD-camera mounted on a phase-contrast microscope. A statistical analyse of the migration, with the non-parametric Mann-Whitney test, was established for 25% of the most motile cells and for the entire cell population for UBS881 and UBS1664, and established for 25%-50% of the most motile cells and for the entire cell population for UBS3285, UBS3327 and UBS3328 compounds. The table F below illustrates the anti-migratory effect of the compound according to the invention.

[1] = system: Hs578T (breast cancer) cells; assay: Cell migration, phase-contrast video microscopy; type: cell-based; details: for 24 hours on the 25% of most motile cells, at 10^−7 M
Protocol: as §1

[2] = system: U-373 MG, Hs578T and/or A549 cancer cells; assay: Cell migration, summary over the cell lines; type: cell-based; details: at the weak studied concentrations; result in words
Protocol: as §1

[3] = system: U-373 MG (Glioma cancer) cells; assay: Cell migration, phase-contrast video microscopy; type: cell-based, human
Protocol: as §1

[4] = system: six human cancer cell lines (Hs683, U-373 MG, HCT-15, LoVo, A549, J82); assay: MTT test, summary over the six cell lines; type: cell-based; details: for cytotoxic / anti-tumor activity on the 6 tested cell lines: result in words, FIGS. 3, 4 and 6
Protocol: In order to characterize the in vitro activities of the compounds according to the invention, MTT tests were carried out. The MTT test, which is a well-known test in the art, is an indirect technique that rapidly measures, i.e. within 5 days, the effect of a given product on the overall cell growth. This test measures the number of metabolically active living cells that are able to transform the MTT product (3-(4,5-dimethylthiazol-2-yl)-2,5 diphenyl tetrazolium bromide), having a yellowish color, to the blue product formazan dye by mitochondrial reduction. The amount of formazan obtained at the end of the experiment is measured with a spectrophotometer and is directly proportional to the number of living cells. Determination of the optical density enables a quantitative measurement of the effect of the investigated compounds as compared to the control condition (untreated cells) and to compare it to other reference compound. In the following examples different compounds according to the invention were tested and compared to the reference compound being UBS881.
Six human cancer cell lines, described in Table D, were tested in the presence of the extract according to the invention. These cell lines represent four histological cancer types, being glioma cancer (cell line Hs683 and U-373 MG), colon cancer (cell lineHCT-15 and LoVo), lung cancer (cell line A549) and bladder cancer (cell line J82). […]
After 72 hours of incubation at 37° C. with the compound (experimental conditions) or without the compound (control condition), the medium was replaced by 100 μl MTT at the concentration of 1 mg/ml dissolved in RPMI. […] The micro wells were shaken for 5 minutes and read on a spectrophotometer at the wavelengths of 570 nm corresponding to the maximum formazan absorbance wavelength, and of 630 nm, which is the background noise wavelength.
For each experimental condition, the mean OD associated with the SEM (standard error of the mean) for each condition (6 wells) was calculated. The percentage of remaining living cells in comparison with the control was calculated. […]

[5] = for 24 hours on the 25% of most motile cells, at 10^−7 M

COc1ccc(OC)c(C2CC3C4CC=C5CC(OC6O[C@H](CO)[C@@H](O[C@@H]7O[C@H](CO)[C@@H](O)[C@H](O)[C@H]7O)[C@H](O)[C@H]6O)CCC5(C)C4CCC3(C)C2C(C)=O)c1 (some centres unmarked) [UBS3327]
Max. effects (anti-migratory effect) (A549 (lung cancer) cells; for 24 hours on the 25% of most motile cells, at 10^−8 M): −34%/p < 0.001 | Max. effects (anti-migratory effect) [1]: −21%/p < 0.001 | migration level of cancer cells [2]: induced a decrease in the migration level

COc1ccc(OC)c(C2CC3C4CC=C5CC(OC6O[C@H](CO[C@@H]7O[C@H](CO)[C@@H](O)[C@H](O)[C@H]7O)[C@@H](O)[C@H](O)[C@H]6O)CCC5(C)C4CCC3(C)C2C(C)=O)c1 (some centres unmarked) [UBS3328]
Max. effects (anti-migratory effect) (A549 (lung cancer) cells; [5]): −40%/p < 0.001 | Max. effects (anti-migratory effect) ([3]; for 12 hours on the entire cell population, at 10^−10 M): −27%/p < 0.001 | migration level of cancer cells [2]: induced a decrease in the migration level

COc1ccc(OC)c(C2CC3C4CC=C5CC(OC6O[C@H](CO)[C@H](O)[C@H](O)[C@H]6O)CCC5(C)C4CCC3(C)C2C(C)=O)c1 (some centres unmarked) [UBS3285]
Max. effects (anti-migratory effect) ([3]; for 24 hours on the 50% of most motile cells, at 10^−8 M): −22%/p < 0.001 | migration level of cancer cells [2]: induced a decrease in the migration level

COc1ccc(OC)c(C(C)(O)C2CCC3C4CC=C5CC(O)CCC5(C)C4CCC32C)c1 (centres unmarked) [UBS1740]
cytotoxic / anti-tumor activity on the 6 tested cell lines [4]: Hs683 and A549 cell lines were most sensitive

COc1ccc(OC)c(C2CC3C4CC(=O)C5=CC(=O)CCC5(C)C4CCC3(C)C2C(C)=O)c1 (centres unmarked) [UBS1664]
cytotoxic / anti-tumor activity on the 6 tested cell lines [4]: induced cytotoxic activity on all 6 tested cell lines | Max. effects (anti-migratory effect) (A549 (lung cancer) cells; for 12 hours on the entire cell population, at 10^−7 M): −15%/p < 0.05 | Max. effects (anti-migratory effect) [3, 5]: −27%/p < 0.001 | migration level of cancer cells [2]: induced a decrease in the migration level

COc1ccc(OC)c(C(C)(O)C2CCC3C4CC(=O)C5=CC(=O)CCC5(C)C4CCC32C)c1 (centres unmarked) [UBS1819]
pIC50 ([4]; Homo sapiens, 72 hours incubation, range over all 6 cell lines): 4.30 to 5.00
